Read-outs that look alike come from different tables or passages of the source. Bounds are passed on as bounds.

The target of series [1] is T1, Recombinant human PI3Kγ (full length human PI3K p110γ) (Homo sapiens, UniProt P48736).
T1 construct: full length human PI3K p110γ fused with a His6-tag at the C-terminus; His6 (C); purchased ALEXIS BIOCHEMICALS #201-055-C010; host or cells: S. frugiperda 9 insect cells
The experiment in a line: Kinase assay of PI3Kγ (solid-phase lipid kinase assay). The series is classed as biochemical. The source says: [Determination of IC50 Values of Compounds in Kinase Assay of PI3Kγ]
Chemicals and Assay Materials
LABORATORIES (Toronto, Canada). Recombinant human PI3Kγ (full length human PI3K p110γ fused with a His6-tag at the C-terminus expressed in S. frugiperda 9 insect cells) was obtained from ALEXIS BIOCHEMICALS (#201-055-C010; San Diego, Calif.). […] BIOTECH (Buckinghamshire, UK) and ROCHE DIAGNOSTICS (Mannheim, Germany), respectively. Scintillation cocktails and MicroScint PS™ were purchased from PACKARD (Meriden, Conn.). Maxisorp™ plates were purchased from NALGE NUNC INTERNATIONAL K.K. (Tokyo, Japan). All other chemicals not further specified were from WAKO PURE CHEMICALS (Osaka, Japan).
Solid-Phase Lipid Kinase Assay
The plates were subsequently air-dried by incubation for at least 2 hours in a fume hood. The reaction was set up by mixing 25 μl/well of assay buffer 2× (100 mM MOPSO/NaOH, 0.2 M NaCl, pH 7.0, 8 mM MgCl2, 2 mg/ml BSA (fatty acid-free)) and 50 ng/well PI3Kγ in the lipid pre-coated plate and 10× test compounds were added in 2% DMSO. The reaction was started by adding 20 μl/well of ATP mix (final 10 μM ATP; 0.05 μCi/well [γ^33P]ATP). After incubation at RT for 2 hours, the reaction was terminated by adding 50 μl/well stop solution (50 mM EDTA, pH 8.0). The plate was then washed twice with Tris-buffered saline (TBS, pH 7.4). MicroScint PS™ (PACKARD) scintillation mix was added at 100 μl/well, and radioactivity was counted by using a TopCount™ (PACKARD) scintillation counter.
The inhibition percent at each concentration of compound was calculated, and IC50 values were determined from the inhibition of curve.

The mark [2] stands for this setting: Table 1, isozyme not given, read-out: in vitro.
The mark [3] stands for this setting: in vitro PI3K-γ inhibitory activity, class symbols A-D, read-out: in vitro PI3K-gamma.

T1 sequence (P48736 whole entry, the tested form may be a part): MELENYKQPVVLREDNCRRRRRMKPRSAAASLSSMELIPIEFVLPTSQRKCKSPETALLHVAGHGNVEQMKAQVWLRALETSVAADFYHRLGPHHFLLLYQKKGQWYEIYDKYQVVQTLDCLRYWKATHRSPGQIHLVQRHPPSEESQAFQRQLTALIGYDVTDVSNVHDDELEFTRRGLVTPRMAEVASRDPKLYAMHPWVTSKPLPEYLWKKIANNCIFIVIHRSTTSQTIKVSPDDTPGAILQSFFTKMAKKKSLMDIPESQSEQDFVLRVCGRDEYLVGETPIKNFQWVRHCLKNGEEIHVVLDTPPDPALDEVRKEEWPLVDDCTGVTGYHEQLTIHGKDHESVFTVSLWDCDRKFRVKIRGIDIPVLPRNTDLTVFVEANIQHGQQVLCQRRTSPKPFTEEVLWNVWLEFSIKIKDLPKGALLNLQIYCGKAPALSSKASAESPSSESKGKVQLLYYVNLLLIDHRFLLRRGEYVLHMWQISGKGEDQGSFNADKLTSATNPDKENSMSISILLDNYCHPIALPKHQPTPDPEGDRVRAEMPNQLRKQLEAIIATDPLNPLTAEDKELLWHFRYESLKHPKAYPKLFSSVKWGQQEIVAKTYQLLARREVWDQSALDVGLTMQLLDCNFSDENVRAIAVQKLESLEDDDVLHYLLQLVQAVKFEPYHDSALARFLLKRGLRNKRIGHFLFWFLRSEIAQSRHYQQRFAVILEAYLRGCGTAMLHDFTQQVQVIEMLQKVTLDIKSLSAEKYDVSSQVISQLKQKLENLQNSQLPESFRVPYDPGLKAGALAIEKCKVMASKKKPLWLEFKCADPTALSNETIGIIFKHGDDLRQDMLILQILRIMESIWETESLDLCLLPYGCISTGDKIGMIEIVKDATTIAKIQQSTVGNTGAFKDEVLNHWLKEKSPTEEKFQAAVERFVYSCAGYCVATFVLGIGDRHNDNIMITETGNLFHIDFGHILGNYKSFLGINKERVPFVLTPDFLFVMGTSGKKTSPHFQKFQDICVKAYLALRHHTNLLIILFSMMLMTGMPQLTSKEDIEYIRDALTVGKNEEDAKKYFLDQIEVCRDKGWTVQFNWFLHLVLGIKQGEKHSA

Regarding `COCOc1ccc2c(c1OC)N=C(/C=C(\O)c1cccnc1)N1CCN=C21` [Example 1-3, 2-[7-Methoxy-8-(methoxymethoxy)-2,3-dihydroimidazo[1,2-c]quinazolin-5-yl]-1-pyridin-3-ylethylenol], the melting point (commonly the temperature, or range, at which the solid turns liquid) lay in the range of 215 to 216 °C. Further, the IC50 in series [1] (activity class of IC50, read-out: In vitro PI3K-γ inhibitory activity) lay in the range of 100 to 500 nM.
As to `COc1c(O)ccc2c1N=C(/C=C(\O)c1cccnc1)N1CCN=C21.Cl` [Example 1-9], the melting point is 245 °C (dec.). In series [1] (setting [2]), the IC50 was less than 100 nM.
The like results for `COc1ccc2c(c1OC)N=C(/C=C(\O)c1cccnc1)N1CCN=C21` [Example 1-10] were, in that order, 269 to 270 °C and less than 100 nM.
Regarding `COc1ccc2c(c1OC)N=C(/C=C(\O)c1ccc(NC(C)=O)nc1)N1CCN=C21` [Example 1-12], the melting point is 270 °C (dec.). Besides, the IC50 in series [1] (setting [2]) is less than 100 nM.
The like results for `CCOc1ccc2c(c1OC)N=C(/C=C(\O)c1cccnc1)N1CCN=C21` [Example 1-13] were, in that order, 267 to 268 °C and less than 100 nM.
For the compound `COc1c(OC(C)C)ccc2c1N=C(/C=C(\O)c1cccnc1)N1CCN=C21` [Example 1-14], the melting point was 252 to 253 °C. The IC50 in series [1] (setting [2]) is less than 100 nM.
For the compound `COc1c(OCC2CC2)ccc2c1N=C(/C=C(\O)c1cccnc1)N1CCN=C21` [Example 1-15], the melting point was 254 °C (dec.). Also, the IC50 in series [1] (setting [2]) was in the range of 100 to 500 nM.
On the same counts, the results for `COc1c(OCCO)ccc2c1N=C(/C=C(\O)c1cccnc1)N1CCN=C21` [Example 1-16] are 264 to 265 °C and less than 100 nM.
The like results for `COc1c(OCC(=O)OC(C)(C)C)ccc2c1N=C(/C=C(\O)c1cccnc1)N1CCN=C21` [Example 1-18] were, in that order, 184 to 186 °C and 100 to 500 nM.
`COc1c(OCCN(C)C)ccc2c1N=C(/C=C(\O)c1cccnc1)N1CCN=C21` [Example 1-19] yielded a melting point of 183 to 184 °C. For the same compound, in series [1] (setting [2]), the IC50 was 100 to 500 nM.
`COc1c(OCCN2CCCCC2)ccc2c1N=C(/C=C(\O)c1cccnc1)N1CCN=C21` [Example 1-20] came in with a melting point of 162 to 163 °C. Further, the IC50 in series [1] (setting [2]) fell in the range of 100 to 500 nM.
Consider `COc1c(OCCN2CCCC2)ccc2c1N=C(/C=C(\O)c1cccnc1)N1CCN=C21` [Example 1-21], for which the melting point was 204 to 205 °C. Besides, the IC50 in series [1] (setting [2]) is less than 100 nM.
Regarding `COc1c(OCC(=O)O)ccc2c1N=C(/C=C(\O)c1cccnc1)N1CCN=C21.Cl` [Example 1-22], the melting point is 240 °C (dec.). The IC50 in series [1] (setting [2]) was less than 100 nM.
The like results for `COc1c(OCC(N)=O)ccc2c1N=C(/C=C(\O)c1cccnc1)N1CCN=C21` [Example 1-23] were, in that order, 297 to 298 °C and less than 100 nM.
Turning to `CNC(=O)COc1ccc2c(c1OC)N=C(/C=C(\O)c1cccnc1)N1CCN=C21.Cl` [Example 1-25], the melting point is 240 °C (dec.). In addition, the IC50 in series [1] (setting [2]) was less than 100 nM.
Regarding `COc1c(OCC(=O)NC(C)C)ccc2c1N=C(/C=C(\O)c1cccnc1)N1CCN=C21.Cl` [Example 1-26], the melting point was 245 °C (dec.). Moreover, the IC50 in series [1] (setting [2]) is less than 100 nM.
The like results for `COc1c(OCC(=O)N(C)C)ccc2c1N=C(/C=C(\O)c1cccnc1)N1CCN=C21` [Example 1-27] were, in that order, 241 to 242 °C and less than 100 nM.
`COc1c(OCC(=O)N2CCOCC2)ccc2c1N=C(/C=C(\O)c1cccnc1)N1CCN=C21` [Example 1-29] displayed a melting point of 235 °C. Besides, the IC50 in series [1] (setting [2]) is less than 100 nM.
The like results for `COc1c(OCC(=O)NCc2ccc(F)cc2)ccc2c1N=C(/C=C(\O)c1cccnc1)N1CCN=C21.Cl` [Example 1-31] were, in that order, 230 to 231 °C and 100 to 500 nM.
Regarding `COc1c(C)ccc2c1N=C(/C=C(\O)c1ccc(NC(C)=O)nc1)N1CCN=C21.Cl` [Example 1-33], the melting point worked out at 273 °C. Further, the IC50 in series [1] (setting [2]) is less than 100 nM.
On the same counts, the results for `COc1c(C)ccc2c1N=C(/C=C(\O)c1ccc3[nH]cnc3c1)N1CCN=C21` [Example 1-34] are greater than 285 °C and less than 100 nM.
`COc1ccc2c(c1OCCN1CCOCC1)N=C(/C=C(\O)c1cccnc1)N1CCN=C21` [Example 1-36] came in with a melting point of 197 °C. Also, the IC50 in series [1] (setting [2]) is less than 100 nM.
On the same counts, the results for `COc1ccc2c(c1OCCN1CCOCC1)N=C(/C=C(\O)c1ccc(NC(C)=O)nc1)N1CCN=C21.Cl` [Example 1-38] are 260 °C and less than 100 nM.
As for `Cc1ccc2c(c1OCCN1CCOCC1)N=C(/C=C(\O)c1cccnc1)N1CCN=C21` [Example 1-39], the melting point turned out to be 217 °C. In addition, the IC50 in series [1] (setting [2]) lay within 100 to 500 nM.
The like results for `CC(=O)Nc1ccc(/C(O)=C/C2=Nc3c(ccc(C)c3OCCN3CCOCC3)C3=NCCN23)cn1.Cl` [Example 1-41] were, in that order, 271 °C and less than 100 nM.
The like results for `COc1cc(OC)c2c(c1)C1=NCCN1C(/C=C(\O)c1cccnc1)=N2` [Example 1-42] were, in that order, 218 °C and less than 100 nM.
As for `CC(=O)Nc1ccc(/C(O)=C/C2=Nc3c(C)cc(Br)cc3C3=NCCN23)cn1.Cl` [Example 1-44], the melting point is greater than 290 °C. In addition, the IC50 in series [1] (setting [2]) was in the range of 100 to 500 nM.
The like results for `Cc1cc(Br)c2c(c1)C1=NCCN1C(/C=C(\O)c1cccnc1)=N2.Cl` [Example 1-45] were, in that order, greater than 290 °C and 100 to 500 nM.
The like results for `CC(=O)Nc1ccc(/C(O)=C/C2=Nc3c(Br)cc(C)cc3C3=NCCN23)cn1.Cl` [Example 1-46] were, in that order, greater than 285 °C and less than 100 nM.
The like results for `Cc1cc(Br)c2c(c1)C1=NCCN1C(/C=C(\O)c1ccc3[nH]cnc3c1)=N2` [Example 1-47] were, in that order, greater than 285 °C and 100 to 500 nM.
In the case of `COc1cc2c(cc1OC)C1=NCCN1C(/C=C(\O)c1ccc(C)nc1)=N2` [Example 1-49], the melting point fell in the range of 200 to 204 °C. The IC50 in series [1] (setting [2]) was less than 100 nM.
As to `COc1cc2c(cc1OC)C1=NCCN1C(/C=C(\O)c1ccc(C)nc1)=N2.Cl` [Example 1-50], the melting point is 260 °C (dec.). Besides, the IC50 in series [1] (setting [2]) is 100 to 500 nM.
On to `CCNc1ccc(/C(O)=C/C2=Nc3cc(OC)c(OC)cc3C3=NCCN23)cn1` [Example 1-53], for which the IC50 in series [1] (setting [2]) was 100 to 500 nM.
On the same count and under the same terms, next, `O/C(=C\C1=Nc2cc(C(F)(F)F)ccc2C2=NCCN12)c1cccnc1` [Example 1-188]: 500 to 2000 nM.
As for `COc1cc2c(cc1OC)C1=NCCN1C(NC(=O)c1cccnc1)=N2` [Example 2-53], the IC50 in series [1] (in vitro PI3K-γ inhibitory activity, class symbols, read-out: in vitro PI3K-gamma) was 100 to 500 nM.
For `CCOC(=O)c1cc(C(=O)NC2=Nc3ccccc3C3=NCCN23)cc(C(=O)OCC)c1.Cl` [Example 2-275], the melting point turned out to be 282 °C.
Regarding `O=C(NC1=Nc2ccccc2C2=NCCN12)c1ccccn1.O=C(O)C(F)(F)F` [Example 2-277], the melting point is 206 °C (dec.).
In the case of `O=C(NC1=Nc2ccccc2C2=NCCN12)c1cnccn1.O=C(O)C(F)(F)F` [Example 2-293], the melting point was 234 °C (dec.).
The same measure, in the same setting: next, `Cc1cnc(C(=O)NC2=Nc3ccccc3C3=NCCN23)cn1.O=C(O)C(F)(F)F` [Example 2-295]: 231 °C (dec.); `Cl.Cn1cccc1C(=O)NC1=Nc2ccccc2C2=NCCN12` [Example 2-297]: 264 °C (dec.).
Consider `Cl.O=C(NC1=Nc2ccccc2C2=NCCN12)c1ccc([N+](=O)[O-])s1` [Example 2-304], for which the melting point is 300 °C (dec.).
Regarding `Cl.O=C(NC1=Nc2ccccc2C2=NCCN12)c1csc([N+](=O)[O-])c1` [Example 2-306], the melting point is 296 °C (dec.).
On the same count and under the same terms, the result for `Cl.O=C(NC1=Nc2ccccc2C2=NCCN12)c1csc(-c2cccnc2)n1` [Example 2-320] reads 310 °C (dec.); that for `Cl.O=C(NC1=Nc2ccccc2C2=NCCN12)c1csc(-c2ccncc2)n1` [Example 2-322], 335 °C (dec.).
As to `CCC(=O)NC1=Nc2ccccc2C2=NCCN12` [Example 2-327], the IC50 in series [1] (setting [3]) was greater than 2000 nM.
On the same count and under the same terms, the result for `CC(C)(C)OC(=O)N1CCCCC1C(=O)NC1=Nc2ccccc2C2=NCCN12` (centres unmarked) [Example 2-336] reads greater than 2000 nM; that for `CC(C)(C)OC(=O)N1CCC(C(=O)NC2=Nc3ccccc3C3=NCCN23)CC1` [Example 2-340], greater than 2000 nM; that for `COc1cc2c(cc1OC)C1=NCCN1C(NC(=O)c1ccccc1)=N2` [Example 2-342], 500 to 2000 nM.

The values are drawn from patent publication US7511041B2, “Fused azole-pyrimidine derivatives” (Bayer Pharmaceuticals Corporation, priority 2002, dated 2009).
